Data: patent US10351548B2, “2-oxo-1,2-dihydropyridine-3-carboxamide compounds and their use as inhibitors of PDK1” (INTERNATIONAL SOCIETY FOR DRUG DEVELOPMENT S.R.L., priority 2015, dated 2019)

What was measured:
PDK1 Direct kinase = PDK1 Direct kinase (Homo sapiens (Human), UniProt O15530); assay: Kinase-specific FRET-based Z'-LYTE assay against PDK1 Direct kinase; format: biochemical; conditions: for IC50: read-out: PDK1 IC50
Experimental: The compounds of Formula (I) and (II) were tested in the biological test named Kinase-specific Z′-LYTE® assay (Invitrogen Corporation, Life Technologies).

U87MG cells = assay: U87MG cell proliferation, MTS assay; format: cell-based, human; conditions: Homo sapiens, U-87 MG; 72 h, MTS assay; read-out: IC50 U87MG
Experimental: (§1) The U87MG cell line was obtained from the National Institute for Cancer Research of Genoa (Italy) and cultured in DMEM 10% FBS and 2 mM glutamine. To isolate GSCs, approximately 2.0×10^6 cells were suspended in 1 mL of a defined serum-free Neural Stem Cell (NSC) medium (Daniele, S., et al., Modulation of A1 and A2B adenosine receptor activity: a new strategy to sensitise glioblastoma stem cells to chemotherapy. Cell death & disease, 2014. 5(11): p. e1539). After 3-4 days of culture, the neurospheres were collected, suspended in NSC medium, dissociated into single cells, and plated for the assays. For the long-term treatment of cells, NSC or complete medium containing drugs was replaced every two to three days.
(§2) The human U87MG cells or GSCs were seeded at a density of 3×10^3 cells/well. After 24 h, the cells were treated from one to seven days with fresh growth medium containing different concentrations of SA16, SA23 or IB35. Following the treatment period, cell proliferation was determined using the MTS assay according to manufacturer's instruction. The absorbance of formazan at […] was measured in a colorimetric assay with an automated plate reader (Victor Wallac 2, Perkin Elmer). The results were calculated by subtracting the mean background from the values obtained from each evaluation and were expressed as the percentage of the control (untreated cells). Sigmoid dose-response curve was generated, from which the IC50 values were derived.
As representative GBM cell line, the above U87MG cells were used; this human cell line resulted an appropriate model to study the effects of PDK1 inhibition, because it is deficient for the tumour suppressor phosphatase and tensin homologue (PTEN), a negative regulator of the PI3K/AKT pathway (Wang, S. I., et al., Somatic mutations of PTEN in glioblastoma multiforme. Cancer research, 1997. 57(19): p. 4183-4186). To examine the effects of SA16, SA23 and IB35 on GBM cell growth/survival, U87MG cells were incubated with different concentrations of the new compounds (1 nM-10 μM) for 24 and 72 h. Specifically, U87MG cells were treated in complete medium with different concentrations of SA16, SA23 or IB35 (1 nM-10 μM) for 24 h (A) or 72 h (B). At the end of treatment, cell proliferation was measured using the MTS assay. The data are expressed as a percentage with respect to that of untreated cells (control), which was set to 100%, and are the mean values±SEM of three independent experiments, each performed in duplicate. The significance of the differences reported in FIGS. 1 and 2 was determined with a one-way ANOVA with Bonferroni post-test (* p<0.05, **p<0.01, *** p<0.001 vs. control cells).

[1] = test system: GSCs isolated from U87MG cells; assay: GSC proliferation, MTS assay; format: cell-based, human; conditions: Homo sapiens, U-87 MG, 168 h; seven days of treatment, MTS assay
Experimental: as §1, §2
The inhibition of PDK1 has been reported as potentially effective therapeutic approach to reduce self-renewal and propagation of GSCs (Signore, M., et al., Combined PDK1 and CHK1 inhibition is required to kill glioblastoma stem-like cells in vitro and in vivo. Cell death & disease, 2014. 5(5): p. e1223). On this basis, the effects of SA16, SA23 and IB35 on GSCs, isolated from U87MG cells as previously reported, were evaluated (Daniele, S., et al., Modulation of A1 and A28 adenosine receptor activity: a new strategy to sensitise glioblastoma stem cells to chemotherapy. Cell death & disease, 2014. 5(11): p. e1539). U87MG-derived GSCs were incubated with the indicated concentrations of IB35, SA23 or SA16 for four days (FIG. 8) or seven days (FIG. 9). At the end of the treatment periods, cell proliferation was measured using the MTS assay. The data were expressed as a percentage with respect to that of untreated cells (control), which was set to 100%, and are the mean values±SEM of three independent experiments, each performed in duplicate. IC50 values after seven days of treatment were calculated from sigmoid dose-response curve (FIG. 9). The significance of the differences was determined with a one-way ANOVA with Bonferroni post-test (** p<0.01, *** p<0.001 vs. control).

PDK1 Direct kinase, sequence (O15530 whole entry): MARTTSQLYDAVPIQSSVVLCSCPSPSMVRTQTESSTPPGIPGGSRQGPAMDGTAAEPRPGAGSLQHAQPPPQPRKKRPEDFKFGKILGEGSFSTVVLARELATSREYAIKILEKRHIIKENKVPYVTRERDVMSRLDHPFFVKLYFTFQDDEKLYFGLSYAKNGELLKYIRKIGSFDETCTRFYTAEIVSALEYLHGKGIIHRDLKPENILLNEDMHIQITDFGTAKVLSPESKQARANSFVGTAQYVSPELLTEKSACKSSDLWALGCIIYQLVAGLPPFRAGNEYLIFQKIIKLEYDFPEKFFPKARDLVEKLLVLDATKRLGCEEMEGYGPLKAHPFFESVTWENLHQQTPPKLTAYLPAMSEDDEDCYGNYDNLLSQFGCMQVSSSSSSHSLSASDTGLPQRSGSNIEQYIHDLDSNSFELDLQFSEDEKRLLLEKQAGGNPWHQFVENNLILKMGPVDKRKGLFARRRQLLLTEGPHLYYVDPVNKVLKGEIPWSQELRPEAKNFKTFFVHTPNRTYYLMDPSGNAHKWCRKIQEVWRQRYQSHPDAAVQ

| IC50 (U87MG cells) [nM] | IC50 [1] [nM] | Compound | inhibition at 10 µM (PDK1 Direct kinase) [%] | IC50 (PDK1 Direct kinase) [nM] |
| --- | --- | --- | --- | --- |
|  |  | O=C(CCCNC(=O)c1cccn(Cc2ccc(F)c(F)c2)c1=O)Nc1ccc2c(c1)/C(=C/c1cnc[nH]1)C(=O)N2 [DF8, (Z)-N-(4-((3-((1H-imidazol-5-yl)methylene)-2-oxoindolin-5-yl)amino)-4-oxobutyl)-1-(3,4-difluorobenzyl)-2-oxo-1,2-dihydropyridine-3-carboxamide] | > 50 |  |
|  |  | O=C(CCNC(=O)c1cccn(Cc2ccc(F)c(F)c2)c1=O)Nc1ccc2c(c1)/C(=C/c1ccc(F)cc1)C(=O)N2 [DD23, (Z)-1-(3,4-difluorobenzyl)-N-(3-((3-(4-fluorobenzylidene)-2-oxoindolin-5-yl)amino)-3-oxopropyl)-2-oxo-1,2-dihydropyridine-3-carboxamide] | 15 |  |
|  |  | O=C(CNC(=O)c1cccn(Cc2ccc(F)c(F)c2)c1=O)Nc1ccc2c(c1)C(=Cc1cccs1)C(=O)N2 (mixture of isomers) [IB36, (E/Z)-1-(3,4-difluorobenzyl)-2-oxo-N-(2-oxo-2-((2-oxo-3-(thiophe-2-ylmethylene)indolin-5-yl)amino)ethyl)-1,2-dihydropyridine-3-carboxamide] | 19 |  |
|  |  | O=C(CCNC(=O)c1cccn(Cc2ccc(F)c(F)c2)c1=O)Nc1ccc2c(c1)/C(=C/c1ncc[nH]1)C(=O)N2 [DD25, (Z/E)-N-(3-((3-((1H-imidazol-2-yl)methylene)-2-oxoindolin-5-yl)amino)-3-oxopropyl)-1-(3,4-difluorobenzyl)-2-oxo-1,2-dihydropyridine-3-carboxamide] | 47 |  |
|  |  | O=C1Nc2ccc(NC(=O)c3cccc(NC(=O)c4cccn(Cc5ccc(F)c(F)c5)c4=O)c3)cc2C1=Cc1cccs1 (mixture of isomers) [DD41, (E/Z)-1-(3,4-difluorobenzyl)-2-oxo-N-(3-((2-oxo-3-(thiophen-2-ylmethylene)indolin-5-yl)carbamoyl)phenyl)-1,2-dihydropyridine-3-carboxamide] | 26 |  |
|  |  | O=C(CNC(=O)c1cccn(Cc2ccc(F)c(F)c2)c1=O)Nc1ccc2c(c1)CC(=O)N2 [IB32, 1-(3,4-difluorobenzyl)-2-oxo-N-(2-oxo-2-((2-oxoindolin-5-yl)amino)ethyl)-1,2-dihydropyridine-3-carboxamide] | > 50 | 6680 |
|  |  | O=C(CCNC(=O)c1cccn(Cc2ccc(F)c(F)c2)c1=O)Nc1ccc2c(c1)/C(=C/c1cnc[nH]1)C(=O)N2 [DD21, (Z)—N-(3-((3-((1H-imidazol-5-yl)methylene)-2-oxoindolin-5-yl)amino)-3-oxopropyl)-1-(3,4-difluorobenzyl)-2-oxo-1,2-dihydropyridine-3-carboxamide] | > 50 |  |
|  |  | O=C(CCNC(=O)c1cccn(Cc2ccc(F)c(F)c2)c1=O)Nc1ccc2c(c1)/C(=C/c1cccs1)C(=O)N2 [DD22, (E/Z)-1-(3,4-difluorobenzyl)-2-oxo-N-(3-oxo-3-((2-oxo-3-(thiophen-2-ylmethylene)indolin-5-yl)amino)propyl)-1,2-dihydropyridine-3-carboxamide] | > 50 | 1340 |
|  |  | O=C(CCCNC(=O)c1cccn(Cc2ccc(F)c(F)c2)c1=O)Nc1ccc2c(c1)C(=Cc1cccs1)C(=O)N2 (mixture of isomers) [DF9, (E/Z)-1-(3,4-difluorobenzyl)-2-oxo-N-(4-oxo-4-((2-oxo-3-(thiophen-2-ylmethylene)indolin-5-yl)amino)butyl)-1,2-dihydropyridine-3-carboxamide] | > 50 | 5880 |
|  |  | O=C1Nc2ccc(NC(=O)c3cccn(Cc4ccc(F)c(F)c4)c3=O)cc2/C1=C/c1cnc[nH]1 [JJ31, (Z)—N-(3-((1H-imidazol-5-yl)methylene)-2-oxoindolin-5-yl)-1-(3,4-difluorobenzyl)-2-oxo-1,2-dihydropyridine-3-carboxamide] | > 50 | 512 |
| 50 ± 2.8 | 15 ± 1.2 | CO[C@H]1C[C@@H]2CC[C@@H](C)[C@@](O)(O2)C(=O)C(=O)N2CCCC[C@H]2C(=O)O[C@H]([C@H](C)C[C@@H]2CC[C@@H](OCCO)[C@H](OC)C2)CC(=O)[C@H](C)/C=C(\C)[C@@H](O)[C@@H](OC)C(=O)[C@H](C)C[C@H](C)/C=C/C=C/C=C/1C [Everolimus, reference compound] |  |  |
